Consider 16 compounds from patent US4923963A, “Bradykinin antagonist peptides” (Nova Technology Limited Partnership, priority 1987, dated 1990).

Molecules are shown by their SMILES. Where two headings read alike, the source gives them in different places. Square brackets hold non-standard residues; d marks the D form. Peptide text beside a SMILES is read from it. dPhe(4-F) = N[C@H](Cc1ccc(F)cc1)C(=O)O; d2Nal = N[C@H](Cc1ccc2ccccc2c1)C(=O)O; Hyp = O=C(O)[C@@H]1C[C@@H](O)CN1; 2Thi = N[C@@H](Cc1cccs1)C(=O)O; d2Thi = N[C@H](Cc1cccs1)C(=O)O

For one experiment, the system named is isolated rat uterus. It counts as cell-based. Particulars: for pA2 /RUT: activity class: not quantitated. As to the method:
(§1) The bradykinin antagonists were assayed on isolated rat uterus in natural or induced estrus and on guinea pig ileum, according to the commonly accepted assay methods for bradykinin and related kinins as described by Trautschold (Handbook of Expt. Pharmacol. Vol 25, Springer Verlag, pp. 53-55, 1970) for inhibition of the myotropic activity of bradykinin. The inhibition potencies, as determined according to the commonly accepted manner described by Schild for antagonists of biologically active compounds (Br. J. Pharmacol. 2:189, 1947), and expressed as pA2 values are determined on isolated rat uterus (RUT) and isolated guinea pig ileum (GPI). In the assays, a dose-response curve is determined for the reference substance bradykinin. The dose of bradykinin which produced a half maximal contraction of tissue is the ED50 dose. An amount of bradykinin equivalent to twice the ED50 dose is administered to the tissue 30 seconds after the start of incubation of the tissue with a dose of antagonist. Doses of antagonist are increased in this protocol until pre-incubation with a dose of antagonist reduces the contraction in response to the double ED50 dose of bradykinin to response of a single ED50 dose of bradykinin. The pA2 value represents the negative logarithm of the molar concentration of antagonist necessary to reduce the response of a double ED50 dose of bradykinin to that of an ED50 dose. One unit of pA2 value represents an order of magnitude change in potency. For comparison, the negative log of the dose of BK, the dose which causes half maximal contraction of the tissues, is commonly known as the pD2 value. The pD2 value for bradykinin is 7.9 on the rat uterus and 7.4 on the guinea pig ileum.

In experiment [1] the test system is isolated guinea pig ileum. The experiment is classed as cell-based. More on the design: pA2 /GPI: activity class: scale not given here. Particulars: isolated guinea pig ileum; for pA2 /GPI: activity class: not quantitated; for pA2 /GPI (antagonist potency): number of tissues in parentheses. As to the method:
as §1

Consider `N=C(N)NCCC[C@@H](N)C(=O)N[C@H](Cc1ccc(F)cc1)C(=O)N1CCC[C@H]1C(=O)N1C[C@H](O)C[C@H]1C(=O)NCC(=O)N[C@@H](Cc1ccccc1)C(=O)N[C@@H](CO)C(=O)N[C@H](Cc1ccccc1)C(=O)N[C@@H](Cc1ccccc1)C(=O)N[C@@H](CCCNC(=N)N)C(=O)O` [Example 12, DArg-FDF-Pro-Hyp-Gly-Phe-Ser-DPhe-Phe-Arg] (H-[dR][dPhe(4-F)]P[Hyp]GFS[dF]FR-OH), for which the “pA2 /RUT (antagonist potency)” value in the experiment on isolated rat uterus (isolated rat uterus, number of tissues in parentheses) is on record as 5.7. Besides, the “pA2 /GPI: activity class” value in experiment [1] was 0.
As to `N=C(N)NCCC[C@H](NC(=O)[C@H](Cc1cccs1)NC(=O)[C@@H](Cc1ccccc1)NC(=O)[C@H](CO)NC(=O)[C@H](Cc1cccs1)NC(=O)CNC(=O)[C@@H]1CCCN1C(=O)[C@@H]1CCCN1C(=O)[C@H](N)Cc1ccccc1)C(=O)O` [Example 19, DPhe-Pro-Pro-Gly-Thi-Ser-DPhe-Thi-Arg] (H-[dF]PPG[2Thi]S[dF][2Thi]R-OH), the “pA2 /RUT: activity class” value in the experiment with isolated rat uterus (isolated rat uterus) is on record as 0. Also, in experiment [1], the “pA2 /GPI: activity class” value came to 0.
For `N=C(N)NCCC[C@H](NC(=O)[C@H](Cc1cccs1)NC(=O)[C@@H](Cc1ccccc1)NC(=O)[C@H](CO)NC(=O)[C@H](Cc1cccs1)NC(=O)CNC(=O)[C@@H]1C[C@@H](O)CN1C(=O)[C@@H]1C[C@@H](O)CN1C(=O)[C@H](N)Cc1ccc2ccccc2c1)C(=O)O` [Example 26, DNal-Hyp-Hyp-Gly-Thi-Ser-DPhe-Thi-Arg] (H-[d2Nal][Hyp][Hyp]G[2Thi]S[dF][2Thi]R-OH), the “pA2 /RUT: activity class” value in the experiment with isolated rat uterus (isolated rat uterus) is recorded as 0. The “pA2 /GPI: activity class” value in experiment [1] came to 0.
In the case of `N=C(N)NCCC[C@@H](N)C(=O)N[C@H](Cc1ccc2ccccc2c1)C(=O)N1C[C@H](O)C[C@H]1C(=O)N1C[C@H](O)C[C@H]1C(=O)NCC(=O)N[C@@H](Cc1cccs1)C(=O)N[C@@H](CO)C(=O)N[C@H](Cc1ccccc1)C(=O)N[C@@H](Cc1cccs1)C(=O)N[C@@H](CCCNC(=N)N)C(=O)O` [Example 27, DArg-DNal-Hyp-Hyp-Gly-Thi-Ser-DPhe-Thi-Arg] (H-[dR][d2Nal][Hyp][Hyp]G[2Thi]S[dF][2Thi]R-OH), the “pA2 /RUT (antagonist potency)” value in the experiment with isolated rat uterus worked out at 5.3. Further, the “pA2 /GPI: activity class” value in experiment [1] is recorded as 0.
In the case of `N=C(N)NCCC[C@H](NC(=O)[C@H](Cc1cccs1)NC(=O)[C@@H](Cc1ccccc1)NC(=O)[C@H](CO)NC(=O)[C@H](Cc1cccs1)NC(=O)CNC(=O)[C@@H]1C[C@@H](O)CN1C(=O)[C@@H]1C[C@@H](O)CN1C(=O)[C@@H](Cc1ccc2ccccc2c1)NC(=O)[C@H](CCCCN)NC(=O)[C@@H](N)CCCCN)C(=O)O` [Example 28, Lys-Lys-DNal-Hyp-Hyp-Gly-Thi-Ser-DPhe-Thi-Arg] (H-KK[d2Nal][Hyp][Hyp]G[2Thi]S[dF][2Thi]R-OH), in the experiment with isolated rat uterus (isolated rat uterus), the “pA2 /RUT: activity class” value turned out to be 0. Besides, the “pA2 /GPI: activity class” value in experiment [1] was 0.
`N=C(N)NCCC[C@H](NC(=O)[C@H](Cc1ccccc1)NC(=O)[C@@H](Cc1ccccc1)NC(=O)[C@H](CO)NC(=O)[C@H](Cc1ccccc1)NC(=O)CNC(=O)[C@@H]1CCCN1C(=O)[C@@H]1CCCN1C(=O)[C@H](N)Cc1ccc2ccccc2c1)C(=O)O` [Example 29, DNal-Pro-Pro-Gly-Phe-Ser-DPhe-Phe-Arg] (H-[d2Nal]PPGFS[dF]FR-OH): the “pA2 /RUT (antagonist potency)” value in the experiment on isolated rat uterus is given as 5.4. Further, in experiment [1], the “pA2 /GPI: activity class” value was found to be 0.
On to `N=C(N)NCCC[C@@H](N)C(=O)N[C@H](Cc1ccc2ccccc2c1)C(=O)N1CCC[C@H]1C(=O)N1CCC[C@H]1C(=O)NCC(=O)N[C@@H](Cc1ccccc1)C(=O)N[C@@H](CO)C(=O)N[C@H](Cc1ccccc1)C(=O)N[C@@H](Cc1ccccc1)C(=O)N[C@@H](CCCNC(=N)N)C(=O)O` [Example 31, DArg-DNal-Pro-Pro-Gly-Phe-Ser-DPhe-Phe-Arg] (H-[dR][d2Nal]PPGFS[dF]FR-OH), for which the “pA2 /RUT (antagonist potency)” value in the experiment with isolated rat uterus was determined as 5.6. Also, the “pA2 /GPI: activity class” value in experiment [1] is on record as 0.
Regarding `N=C(N)NCCC[C@@H](N)C(=O)N[C@H](Cc1ccc2ccccc2c1)C(=O)N1CCC[C@H]1C(=O)N1C[C@H](O)C[C@H]1C(=O)NCC(=O)N[C@@H](Cc1ccccc1)C(=O)N[C@@H](CO)C(=O)N[C@H](Cc1ccccc1)C(=O)N[C@@H](Cc1ccccc1)C(=O)N[C@@H](CCCNC(=N)N)C(=O)O` [Example 32, DArg-DNal-Pro-Hyp-Gly-Phe-Ser-DPhe-Phe-Arg] (H-[dR][d2Nal]P[Hyp]GFS[dF]FR-OH), in the experiment on isolated rat uterus, the “pA2 /RUT (antagonist potency)” value came out at 5.9. Moreover, the “pA2 /GPI: activity class” value in experiment [1] is reported as 0.
For `N=C(N)NCCC[C@H](NC(=O)[C@H](Cc1ccccc1)NC(=O)[C@@H](Cc1cccs1)NC(=O)[C@H](CO)NC(=O)[C@H](Cc1ccccc1)NC(=O)CNC(=O)[C@@H]1CCCN1C(=O)[C@@H]1CCCN1C(=O)[C@H](N)Cc1ccc2ccccc2c1)C(=O)O` [Example 37, DNal-Pro-Pro-Gly-Phe-Ser-DThi-Phe-Arg] (H-[d2Nal]PPGFS[d2Thi]FR-OH), the “pA2 /RUT: activity class” value in the experiment with isolated rat uterus (isolated rat uterus) is given as 0. In addition, the “pA2 /GPI: activity class” value in experiment [1] was 0.
With `N=C(N)NCCC[C@H](NC(=O)[C@H](Cc1ccccc1)NC(=O)[C@@H](Cc1cccs1)NC(=O)[C@H](CO)NC(=O)[C@H](Cc1ccccc1)NC(=O)CNC(=O)[C@@H]1C[C@@H](O)CN1C(=O)[C@@H]1CCCN1C(=O)[C@H](N)Cc1ccc2ccccc2c1)C(=O)O` [Example 38, DNal-Pro-Hyp-Gly-Phe-Ser-DThi-Phe-Arg] (H-[d2Nal]P[Hyp]GFS[d2Thi]FR-OH), in the experiment with isolated rat uterus (isolated rat uterus), the “pA2 /RUT: activity class” value was 0. Besides, the “pA2 /GPI: activity class” value in experiment [1] is given as 0.
For the compound `N=C(N)NCCC[C@@H](N)C(=O)N[C@H](Cc1ccc2ccccc2c1)C(=O)N1CCC[C@H]1C(=O)N1C[C@H](O)C[C@H]1C(=O)NCC(=O)N[C@@H](Cc1ccccc1)C(=O)N[C@@H](CO)C(=O)N[C@H](Cc1cccs1)C(=O)N[C@@H](Cc1ccccc1)C(=O)N[C@@H](CCCNC(=N)N)C(=O)O` [Example 40, DArg-DNal-Pro-Hyp-Gly-Phe-Ser-DThi-Phe-Arg] (H-[dR][d2Nal]P[Hyp]GFS[d2Thi]FR-OH), the “pA2 /RUT (antagonist potency)” value in the experiment on isolated rat uterus is 5.6. Moreover, in experiment [1], the “pA2 /GPI: activity class” value is recorded as 0.
In the case of `N=C(N)NCCC[C@@H](N)C(=O)N[C@@H](CCCNC(=N)N)C(=O)N1CCC[C@H]1C(=O)N1CCC[C@H]1C(=O)NCC(=O)N[C@@H](Cc1cccs1)C(=O)N[C@@H](CO)C(=O)N[C@H](Cc1ccccc1)C(=O)N[C@@H](Cc1cccs1)C(=O)N[C@H](CCCNC(=N)N)C(=O)O` [Example 43, DArg-Arg-Pro-Pro-Gly-Thi-Ser-DPhe-Thi-DArg] (H-[dR]RPPG[2Thi]S[dF][2Thi][dR]-OH), the “pA2 /RUT: activity class” value with isolated rat uterus (isolated rat uterus) worked out at 0. In addition, the “pA2 /GPI: activity class” value in experiment [1] is on record as 0.
In the case of `CC(=O)N[C@@H](CCCNC(=N)N)C(=O)N1CCC[C@H]1C(=O)N1CCC[C@H]1C(=O)NCC(=O)N[C@@H](Cc1cccs1)C(=O)N[C@@H](CO)C(=O)N[C@H](Cc1ccccc1)C(=O)N[C@@H](Cc1cccs1)C(=O)N[C@@H](CCCNC(=N)N)C(N)=O` [Example 52, Ac-Arg-Pro-Pro-Gly-Thi-Ser-DPhe-Thi-Arg-NH2] (Ac-RPPG[2Thi]S[dF][2Thi]R-NH2), in the experiment on isolated rat uterus (isolated rat uterus), the “pA2 /RUT: activity class” value was determined as 0. The “pA2 /GPI: activity class” value in experiment [1] turned out to be 0.
As to `CC(=O)N[C@@H](CCCNC(=N)N)C(=O)N1CCC[C@H]1C(=O)N1CCC[C@H]1C(=O)NCC(=O)N[C@@H](Cc1cccs1)C(=O)N[C@@H](CO)C(=O)N[C@H](Cc1ccccc1)C(=O)N[C@@H](Cc1cccs1)C(=O)N[C@H](CCCNC(=N)N)C(N)=O` [Example 56, Ac-Arg-Pro-Pro-Gly-Thi-Ser-DPhe-Thi-DArg-NH2] (Ac-RPPG[2Thi]S[dF][2Thi][dR]-NH2), in the experiment on isolated rat uterus (isolated rat uterus), the “pA2 /RUT: activity class” value stood at 0. In addition, in experiment [1], the “pA2 /GPI: activity class” value worked out at 0.
As for `CC[C@H](C)[C@H](NC(=O)[C@H](CCCNC(=N)N)NC(=O)[C@H](Cc1ccccc1)NC(=O)[C@@H](Cc1ccccc1)NC(=O)[C@H](CO)NC(=O)[C@H](Cc1ccccc1)NC(=O)CNC(=O)[C@@H]1CCCN1C(=O)[C@@H]1CCCN1C(=O)[C@H](CCCNC(=N)N)NC(=O)[C@H](N)CCCNC(=N)N)C(=O)N[C@@H](Cc1ccc(O)cc1)C(=O)O` [Example 64, DArg-Arg-Pro-Pro-Gly-Phe-Ser-DPhe-Phe-Arg-Ile-Tyr] (H-[dR]RPPGFS[dF]FRIY-OH), the “pA2 /RUT: agonist potency as percent of BK potency” value with isolated rat uterus (isolated rat uterus) is listed as 0.7%. The “pA2 /GPI (antagonist potency)” value in experiment [1] was determined as 6.2.
With `CC[C@H](C)[C@H](NC(=O)[C@H](CCCNC(=N)N)NC(=O)[C@H](Cc1cccs1)NC(=O)[C@@H](Cc1ccccc1)NC(=O)[C@H](CO)NC(=O)[C@H](Cc1cccs1)NC(=O)CNC(=O)[C@@H]1CCCN1C(=O)[C@@H]1CCCN1C(=O)[C@H](CCCNC(=N)N)NC(=O)[C@H](N)CCCNC(=N)N)C(=O)N[C@@H](Cc1ccc(O)cc1)C(=O)O` [Example 66, DArg-Arg-Pro-Pro-Gly-Thi-Ser-DPhe-Thi-Arg-Ile-Tyr] (H-[dR]RPPG[2Thi]S[dF][2Thi]RIY-OH), in the experiment with isolated rat uterus, the “pA2 /RUT: agonist potency as percent of BK potency” value was determined as 0.3%. Moreover, in experiment [1], the “pA2 /GPI (antagonist potency)” value is recorded as 5.8.
